Reference: a melting point compilation (Tetko et al.; mined from patent text by program, amines drawn as free bases though some values may be those of a salt)

| Structure (SMILES) | melting point [°C] |
| --- | --- |
| CCCCCCCN(CCc1ccc(OC(C)(C)C(=O)O)cc1)C(=O)Nc1ccc(F)cc1 | 162 to 164 |
| Cc1ccc(S(=O)(=O)N2CCN(S(=O)(=O)c3ccc(C)cc3)[C@@H](c3ccccc3)C2)cc1 | 258 |
| O=Cc1cc(O)c(O)c([N+](=O)[O-])c1 | 142 to 143 |
| CC(C)(C)OC(=O)N1CCC(Oc2cncc(Cl)n2)CC1 | 86 to 87 |
| O=C(NC1c2sc([N+](=O)[O-])cc2OCC1O)c1ccc(C(F)(F)F)cc1 (configuration not stated) | 219 to 220 |
| Cn1cccc1-c1nc(-c2cccnc2)no1 | 108 to 109 |
| CN=C(C)c1cc(Oc2ccc(C(F)(F)F)cc2Cl)ccc1[N+](=O)[O-] | 133 to 137 |
| CCCn1nc2c(N)nc3c(c2c1CC(C)(C)S(C)(=O)=O)CCCC3 | 209 to 211 |
| O=C(CF)NOC(=O)C(F)(F)F | 56 to 59 |
| O=Cc1c2n(c3cc(Br)ccc13)CCNCC2 | 186 to 188 |
| CC(C)C(=O)Nc1cccn1C | 122 to 124 |
| CCc1c(CCNC(=O)CCC(C)CC(=O)NCCc2ccc(OC)c(OC)c2CC)ccc(OC)c1OC (configuration not stated) | 152 to 153 |
| Clc1nc(N2CCOCC2)nc(N2CCOCC2)n1 | 174 |
| Cc1nccn1-c1ccc(COc2cccc(C3(C(N)=O)CCOCC3)c2)cc1 | 183 to 186 |
| CC(=O)N1CCN(C(C)=O)C1=Nc1ccc(Cl)cc1Cl | 113 to 115 |
| CC(=O)OCCSCCOc1ccc(CCC(=O)O)cc1 | 48 to 49 |
| CS(=O)(=O)C(=C1CN(C(c2ccc(Cl)cc2)c2ccc(Cl)cc2)C1)c1cccc(C(=O)NN2CCCCC2)c1 | 175 |
| CC(c1ccc(N2CCCC2)cc1)c1ccc(N2CCCC2)cc1 | 112 |
| Cc1cn(C)c2c1N(C(=O)CCl)c1ccccc1NC2=O | 267 to 269 |
| COc1cc(C(=O)NS(=O)(=O)c2ccccc2C)ccc1Cc1cn(C)c2ccc(CC(C)NC(=O)N(C)C)cc12 (configuration not stated) | 125 to 135 |
| CCN(c1nc(NCCO)nc(N(CC)C2CC(C)(C)NC(C)(C)C2)n1)C1CC(C)(C)NC(C)(C)C1 | 184 to 185 |
| CCOC(=O)c1cn(CC)c2cc(NC(C)=O)c(F)cc2c1=O | 177 to 180 |
| Cc1sc(C)c2c1CCC=C2c1c[nH]cn1 | 179 to 180 |

| Structure (SMILES) | melting point [°C] |
| --- | --- |
| CSCC(=O)[C@H](CC(C)C)NC(=O)[C@H](CC(C)C)NC(=O)OCc1ccccc1 | 96 to 97 |
| N#CCCNC(=O)c1cccc(-c2cccn3c(=O)n(Cc4cccc(C(F)(F)F)c4)nc23)c1 | 217 to 219 |
| COC1=C(OC)C(=Nc2ccc(Cl)c(Cl)c2)N(C)C1=O | 111 to 113 |
| CC(=O)OCC1C=CC(n2cc(F)c(N)nc2=O)O1 (configuration not stated) | 182 to 184 |
| COc1ccc(-c2oncc2CCC(=O)O)cc1 | 101 to 102 |
| COC(=O)C(C)Oc1ccc(NC(=O)OCCOC(=O)Nc2ccc(OC(C)C(=O)OC)cc2)cc1 (configuration not stated) | 98 to 100 |
| CCCc1c(OCCCc2ccc(O)c(O)c2)ccc(C(=O)O)c1O | 194 to 195 |
| COc1cccc2cc(CCl)oc12 | 44.5 to 45 |
| CC(C)(C)OC(=O)N1CCN(CCOc2cc(-c3ccccc3)on2)CC1 | 110 to 111 |
| COc1ccccc1SCC(=O)NCCCCCC(=O)O | 95 to 97 |
| COc1cc(Nc2c(C#N)cnc3c2C=C2N=CN=C2C3)cc(OC)c1OC | > 260 |
| O=C(O)c1ccccc1Oc1ccc(C(F)(F)F)cc1NS(=O)(=O)c1ccc(C(F)(F)F)cc1 | 175 |
| Cc1cc(C(=O)Nc2ccccc2C)n(C)n1 | 158 to 160 |
| NCCC1CCc2ccc3c(c21)NC(=O)CO3 (configuration not stated) | 128 to 134 |
| O=C(CO)NCCCOCCCCOCCCNC(=O)CO | 67 to 71 |
| O=[N+]([O-])c1ccc2nc(-c3ccc(Cl)cc3)sc2c1 | 227 to 232 |
| CCNC(=S)NS(=O)(=O)c1cc2c(cc1OC)OCCC2CNC(=O)N1CC(C)=C(CC)C1=O (configuration not stated) | 147 |
| Cc1c(-c2ccc(O)cc2)n(Cc2ccc(C#CCN3CCCCC3)cc2)c2ccc(O)cc12 | 118 to 123 |
| COc1cc(-c2nc3ccc(OCCN(C)C)cc3n2Cc2ccccc2)cc(OC)c1OC | 108 |
| CCOC(=O)N1C(NC(C)C)=NS(=O)(=O)c2c1cnn2C | 141 to 145 |
| CCCOc1ccc(S(C)(=O)=O)cc1C(=O)Nc1c(CC)nn(CC2CCCN2C)c1C(N)=O (configuration not stated) | 217 to 221 |
| CC(C)=CCc1c(C)cc(O)cc1C | 64 to 65 |
| CCc1cc(OCc2ccc(-c3ccccc3-c3nnnn3-c3ccc(C#N)cc3)cc2)c2ccccc2n1 | 165 to 166 |

| Structure (SMILES) | melting point [°C] |
| --- | --- |
| CCOC(=O)C(CC)Sc1nc2c(c(=O)[nH]c(=O)n2C)n1Cc1cccc(N)c1 (configuration not stated) | 107 |
| COCC1(F)CCN(c2ccc(N3C[C@H](CNC(C)=O)OC3=O)cc2F)CC1 | 169 to 171 |
| O=C(O)c1ccc2c(c1)S(=O)(=O)c1ccc(Cl)cc1C=C2 | 276 to 278 |
| S=C(NCCc1ccccc1)N1CCN(c2cnccn2)CC1 | 162 to 163 |
| Cc1sc(C=O)c(C)c1C | 45 to 46 |
| Cc1nccn1CCCNC(=O)c1ccc(Cl)nc1 | 175 to 177 |
| OCc1cn2c(n1)CN=C(c1ccccc1Cl)c1cc(Cl)ccc1-2 | 174 to 175 |
| COc1cc2c(cc1OC)CN(CCC1OCC(C)(C)c3cc(OC)c(OC)cc31)CC2 (configuration not stated) | 100 to 105 |
| CCCCCCCCCc1ccc(C(=O)O)c(O)c1 | 94 to 97 |
| Cc1cccc(-c2c[nH]nc2-c2ccnc(-c3ccc(OCC(=O)N4CCOCC4)cc3)c2)n1 | 170 |
| CCOC(=O)/C=C/c1nc(-c2ccccc2)oc1COc1ccc(OCc2nc(-c3ccccc3)oc2C)cc1 | 107 to 108 |
| CC(=O)NNCc1c[nH]c(=S)n1[C@H]1CCc2c(F)cc(F)cc2C1 | 144 to 153 |
| CN(C)CCn1c(=O)c2cc([N+](=O)[O-])ccc2c2cnc3cc4c(cc3c21)OCO4 | 204 to 205 |
| CCCc1nc(C(N)=O)c2n1-c1ccc(Cl)cc1C(c1ccccc1Cl)=NC2 | 298 to 300 |
| CCOC(=O)CCCSc1nnc(S)s1 | 107 to 108 |
| CN(C)CCCCNC(=O)c1cnc2c(c1)N(Cc1cc(Cl)ccc1C(F)(F)F)CCN2 | 182 |
| CNC(=O)Nc1ccc(OCCCN2CCC(C(O)(c3ccc(F)cc3)c3ccc(F)cc3)CC2)cc1 | 177 to 178 |
| Cc1ccc(S(=O)(=O)OCC(C)C2CCC3C4CC=C5CC(O)CC(O)C5(C)C4CCC23C)cc1 (configuration not stated) | 91 to 99 |
| CCOC(=O)c1cn(C2CC2)c2c(C)c(F)c(F)c([N+](=O)[O-])c2c1=O | 260 to 263 |
| C=CCOc1ccc([C@H]2CCN(C(=O)OC(C)(C)C)C[C@@H]2O)cc1 (racemic) | 113 |
| CCOC(=O)C1=C(COCc2nnnn2CCNc2nc(N)n[nH]2)NC(C)=C(C(=O)OC)C1c1cccc(Cl)c1Cl (configuration not stated) | 70 |

Continued, values first:

| melting point [°C] | Structure (SMILES) |
| --- | --- |
| 176 to 178 | O=C1COc2ccc(-c3cccnc3-c3ccccc3)cc2N1 |
| 230 | O=C1c2ccccc2C(=O)N1CC(=O)N(CC(=O)N1CCc2ccccc21)c1ccccc1 |
| 166 to 170 | O=C(CN1CCC(Cc2ccccc2)CC1)Nc1ccc2c(c1)CC(=O)N2 |
| 97 to 98 | COc1cc(OCc2ccccc2)ccc1C(=O)c1cc(Cl)ccc1N |
| 182 | CCOC(=O)c1cc(SCc2ccccc2)c(Cl)c(S(N)(=O)=O)c1 |
| 105 to 106 | COC(=O)C1Cc2c([nH]c3ccccc23)C(c2ccccc2Br)N1 (configuration not stated) |
| 60 to 67 | Cc1noc(NS(=O)(=O)c2ccccc2-c2ccc(CC(C)C)cc2CO)c1C |
| 122 to 124 | O=C(OCCN1CCOC1=O)c1ccccc1Nc1ccnc2cc(Cl)ccc12 |
| 229 to 231 | O=C1CCC(N2Cc3cc(CNC(=S)Nc4ccc(SC(F)(F)F)cc4)ccc3C2=O)C(=O)N1 (configuration not stated) |
| 166 | COc1ccc2ccc(N3C(=O)c4ccccc4C3OCC(=O)N(C)C)nc2n1 (configuration not stated) |
| 127 to 129 | CCCCCCN1CC(C(=O)OC)N(S(=O)(=O)c2ccc(-c3ccc(Br)cc3)cc2)CC1=O (configuration not stated) |
| 152 to 153 | CCOC(=O)C(=O)CC(=O)c1cn(Cc2ccccc2F)c2ccccc2c1=O |
| 160 to 162 | COC(=S)NCc1cn(-c2ccc(-n3ccc(C=O)c3)cc2)nn1 |
| 134 | CNC(=O)c1ccc(C(C)(C)CCNC(=O)NCc2ccc(N)nc2)nc1Nc1ccccc1 |
| 264 | O=C(O)CCCOc1cc(-c2ccccc2)nc2ccccc12 |
| 101 | CSc1ccc2ncn(CCN3CCC(Nc4nc5ccccc5n4Cc4ccc(F)cc4)CC3)c(=O)c2c1 |
| > 240 | Cc1c(C(=O)O)ccc2c1[nH]c1ccccc12 |
| 82 to 84 | N#Cc1ccccc1-c1ccc(OCC(=O)C2CC2)cc1 |
| 223 to 225 | CCOC(=O)c1ccc(NC(=O)N(CCc2ccccc2)c2ccc3c(c2)C(C)(C)CCC3(C)C)cc1 |
| 107 | c1ccc(-n2c(-c3ccc(OCCN4CCCCC4)cc3)nc3ccccc32)cc1 |
| 156 | O=C1CCC(c2ccccc2)(c2ccccc2)C2CN(C(Cc3ccccc3)=NCc3cccc(F)c3)CC12 (configuration not stated) |
| 95.5 to 100 | OCC1OC(n2cnc3c(NC4CCCc5ccccc54)ncnc32)C(O)C1O (configuration not stated) |
| 140 to 141 | CC(C)CN(CCc1c[nH]c2ccccc12)C(=O)CCCC(=O)O |
| 136 | O=c1[nH]c2ccccc2n1CCN1CCN(Cc2ccccc2)CC1 |
| 196 to 198 | NC(=O)c1c(Cl)c(-c2ccccc2)n2c1CN(C(=O)Oc1ccccc1)CC2 |
| 88 to 89 | COc1ccc(CC(=O)O)cc1OCCc1ccccc1 |
| 137 to 138 | OCc1ccc(-c2cccc3cncn23)cc1 |
| 148 | Cc1cccc(-c2n[nH]cc2-c2ccnc(-c3ccc(C(=O)NC4CCOCC4)cc3)c2)n1 |
| 243 to 245 | COc1ccc(NC(=O)N(C)Cc2cccc3c2C(=O)N(C2CCC(=O)NC2=O)C3=O)cc1 (configuration not stated) |
| 168 to 172 | COc1ncc(Br)cc1/C=C/C(=O)c1ccc(Cl)cc1 |
